Experimental data from ChEMBL document CHEMBL3352495, “Discovery of the 1,7-diazacarbazole class of inhibitors of checkpoint kinase 1” (Bioorg Med Chem Lett, 2014).

Key:
Type in all cases: ADME, organism-based
Mus musculus [1] = assay: Dose normalized AUC in NCR mouse at 25 mg/kg, po administered as suspension; design: dose 25 mg/kg, route oral; settings: in vivo
[2] = Half life in NCR mouse at 25 mg/kg, po administered as solution; design: dose 25 mg/kg, route oral; settings: in vivo
Mus musculus [3] = assay: Dose normalized AUC in NCR mouse at 25 mg/kg, po administered as solution; design: dose 25 mg/kg, route oral; settings: in vivo
[4] = Oral bioavailability in NCR mouse at 25 mg/kg administered as suspension; settings: in vivo
[5] = Half life in CD1 mouse at 0.5 mg/kg, iv; design: dose 0.5 mg/kg, route intravenous; settings: in vivo
[6] = Oral bioavailability in NCR mouse at 25 mg/kg administered as solution; settings: in vivo
[7] = AUC in CD1 mouse at 5 mg/kg, po administered as solution; design: dose 5 mg/kg, route oral; settings: plasma
Mus musculus [8] = assay: Dose normalized AUC in CD1 mouse at 5 mg/kg, po administered as suspension; design: dose 5 mg/kg, route oral; settings: in vivo
[9] = Cmax in CD1 mouse at 5 mg/kg, po administered as solution; design: dose 5 mg/kg, route oral; settings: in vivo
[10] = AUC in NCR mouse at 25 mg/kg, po administered as solution; design: dose 25 mg/kg, route oral; settings: plasma
[11] = Half life in Sprague-Dawley rat at 5 mg/kg, po administered as solution; design: dose 5 mg/kg, route oral; settings: in vivo
[12] = AUC in Sprague-Dawley rat at 1 mg/kg, iv; design: dose 1 mg/kg, route intravenous; settings: plasma
[13] = AUC in Sprague-Dawley rat at 5 mg/kg, po administered as solution; design: dose 5 mg/kg, route oral; settings: plasma
Rattus norvegicus [14] = assay: Dose normalized AUC in Sprague-Dawley rat at 5 mg/kg, po administered as solution; design: dose 5 mg/kg, route oral; settings: in vivo
Rattus norvegicus [15] = assay: Dose normalized AUC in Sprague-Dawley rat at 1 mg/kg, iv; design: dose 1 mg/kg, route intravenous; settings: in vivo
[16] = AUC in CD1 mouse at 5 mg/kg, po administered as suspension; design: dose 5 mg/kg, route oral; settings: plasma
[17] = Half life in NCR mouse at 25 mg/kg, po administered as suspension; design: dose 25 mg/kg, route oral; settings: in vivo
[18] = Cmax in NCR mouse at 25 mg/kg, po administered as solution; design: dose 25 mg/kg, route oral; settings: in vivo
[19] = Cmax in NCR mouse at 25 mg/kg, po administered as suspension; design: dose 25 mg/kg, route oral; settings: in vivo
[20] = Clearance in CD1 mouse at 0.5 mg/kg, iv; design: dose 0.5 mg/kg, route intravenous; settings: in vivo
[21] = Cmax in Sprague-Dawley rat at 5 mg/kg, po administered as solution; design: dose 5 mg/kg, route oral; settings: in vivo
Mus musculus [22] = assay: Dose normalized AUC in CD1 mouse at 0.5 mg/kg, iv; design: dose 0.5 mg/kg, route intravenous; settings: in vivo
[23] = Cmax in CD1 mouse at 5 mg/kg, po administered as suspension; design: dose 5 mg/kg, route oral; settings: in vivo
[24] = Half life in Sprague-Dawley rat at 1 mg/kg, iv; design: dose 1 mg/kg, route intravenous; settings: in vivo
Mus musculus [25] = assay: Dose normalized AUC in CD1 mouse at 5 mg/kg, po administered as solution; design: dose 5 mg/kg, route oral; settings: in vivo
[26] = Oral bioavailability in CD1 mouse at 5 mg/kg administered as solution; settings: in vivo
[27] = Oral bioavailability in CD1 mouse at 5 mg/kg administered as suspension; settings: in vivo
[28] = AUC in NCR mouse at 25 mg/kg, po administered as suspension; design: dose 25 mg/kg, route oral; settings: plasma
[29] = Oral bioavailability in Sprague-Dawley rat at 5 mg/kg administered as solution; settings: in vivo
[30] = Clearance in Sprague-Dawley rat at 1 mg/kg, iv; design: dose 1 mg/kg, route intravenous; settings: in vivo
[31] = Half life in CD1 mouse at 5 mg/kg, po administered as suspension; design: dose 5 mg/kg, route oral; settings: in vivo
[32] = AUC in CD1 mouse at 0.5 mg/kg, iv; design: dose 0.5 mg/kg, route intravenous; settings: plasma
[33] = Half life in CD1 mouse at 5 mg/kg, po administered as solution; design: dose 5 mg/kg, route oral; settings: in vivo

Compound: CN1CCN(c2ccc(-c3cnc4[nH]c5cnc(C#N)cc5c4c3)cc2)CC1
- AUC/dose (Mus musculus [1]): 0.14 kg·h/L
- half-life [2]: 2.1 h
- AUC/dose (Mus musculus [3]): 0.13 kg·h/L
- bioavailability [4]: 55%
- half-life [5]: 5.8 h
- bioavailability [6]: 50%
- AUC [7]: 1.85 µM·h
- AUC/dose (Mus musculus [8]): 0.13 kg·h/L
- Cmax [9]: 450 nM
- AUC [10]: 8.46 µM·h
- half-life [11]: 2.3 h
- AUC [12]: 1.81 µM·h
- AUC [13]: 5.64 µM·h
- AUC/dose (Rattus norvegicus [14]): 0.42 kg·h/L
- AUC/dose (Rattus norvegicus [15]): 0.67 kg·h/L
- AUC [16]: 1.72 µM·h
- half-life [17]: 4 h
- Cmax [18]: 2510 nM
- Cmax [19]: 910 nM
- clearance [20]: 67 mL/min/kg
- Cmax [21]: 930 nM
- AUC/dose (Mus musculus [22]): 0.25 kg·h/L
- Cmax [23]: 200 nM
- half-life [24]: 1.8 h
- AUC/dose (Mus musculus [25]): 0.14 kg·h/L
- bioavailability [26]: 54%
- bioavailability [27]: 50%
- AUC [28]: 9.37 µM·h
- bioavailability [29]: 62%
- clearance [30]: 27 mL/min/kg
- half-life [31]: 2.9 h
- AUC [32]: 0.34 µM·h
- half-life [33]: 1.6 h
